We go through 1 compound from US11453640B2, “Small molecules for disrupting the super elongation complex and inhibiting transcription elongation for cancer therapy” (NORTHWESTERN UNIVERSITY, priority 2018, dated 2022).

The test system of one data set is Pol II. Nature of the data set: Pol II ChIP-seq, promoter-proximal pausing in HEK293T cells. It is filed as cell-based, human. The method, then: FIG. 2. Small molecule disruption of SEC increases promoter-proximal pausing. (A) SEC inhibitors increase Pol II occupancy near the transcription start sites (TSS) of the HSPA8 and SRSF4 genes. Pol II ChIP-seq was performed in HEK293T cells with 20 μM SEC inhibitors KL-1 and KL-2 for 6 hr. […] (B) Heatmap analysis of Pol II occupancy at SEC-occupied genes in cells treated with KL-1 and KL-2. SEC inhibition results in increased Pol II occupancy at promoter-proximal regions of genes occupied by SEC. Rows are sorted by Pol II occupancy in the DMSO condition and metaplots of Pol II occupancy are shown at the bottom. Corresponding AFF1 and AFF4 occupancy (rpm) in the vehicle-treated condition is shown. […] The pausing index is calculated based on the ratio of Pol II occupancy around the TSS to Pol II occupancy in the gene body. […]
Chromatin Immunoprecipitation Sequencing. […] ChIP-seq reads were aligned to the Drosophila genome (UCSC dm3) or human genome (UCSC hgl9). Alignments were processed with Bowtie version 1.1.2, allowing only uniquely mapping reads with up to two mismatches within the 50 bp read. The resulting reads were extended to 150 bp toward the interior of the sequenced fragment and normalized to total reads aligned (reads per million, r.p.m.). […] P-values were calculated with a two-sided Kolmogorov-Smirnov test. […]

Data set [1] can be described thus: Toxicity test in mice (body weight, sickness). The class given is in vivo. Conditions: 5 doses of 50 mg/kg, monitored 35 days. The method, then: FIG. 14, related to FIG. 7. SEC disruptors delay tumor progression and improve survival of MDA231-LM2 tumor mice. (A) KL-1 and KL-2 inhibit the colony formation of MDA231-LM2 cells in vitro. 5×10^3 MDA231-LM2 cells were seeded in 6-well plates and treated with KL-1 or KL-2 at the indicated doses for 5 days. Crystal violet staining was performed to stain the colonies. (B) KL-1 and KL-2 induce apoptosis in MDA231-LM2 cells. Bar graph depiction of Annexin V positive MDA231-LM2 cells after 24 hr of KL-1 and KL-2 treatments at the indicated concentrations. Data are represented as Mean+/−SD. […] Each individual line indicates the weights of each mouse during toxicity test.

Data set [2] deals with Tat-induced HIV genome activation in J-Lat 6.3 cells. Nature of the data set: Tat-induced HIV genome activation in J-Lat 6.3 cells (GFP, FACS). Conditions: 20 μM, 10 nM PMA, 17 hr. It is filed as cell-based, human. The method, then: FIG. 12, related to FIG. 5. SEC inhibitors block transcription elongation in SEC-dependent rapid response models. […] (B) Gene Ontology analysis of the 136 identified heat shock-induced genes in HCT-116 cells. (C) Workflow of Tat-induced HIV genome activation in J-Lat 6.3 cells. J-Lat 6.3 cells contain an integrated copy of the HIV genome that has GFP replacing HIV nef and could be activated by Phorbol-12-Myristate-13-Acetate (PMA). J-Lat 6.3 cells were treated with vehicle or 20 μM SEC inhibitor along with PMA to activate the HIV genome transcription, which could be monitored by flow cytometry analysis. (D-E) SEC inhibitors block Tat-induced HIV genome activation in J-Lat 6.3 cells. (D) FACS analysis of J-Lat 6.3 cells treated with 10 nM PMA and SEC inhibitors for 17 hr. […] Unpaired two-way ANOVA was used to compare the groups between DMSO and SEC inhibitors. ***, p<0.001. Data are represented as Mean+/−SD. […]
Induction of J-Lat 6.3 Cells. […] Cells were washed in PBS and GFP fluorescence was measured with a FACSVantage instrument (Becton Dickinson, San Jose, Calif.). […] A two-parameter analysis to distinguish GFP-derived fluorescence from background fluorescence was used: GFP was measured in FL1 and cellular autofluorescence was monitored in FL2. The percentage of GFP-positive cells was calculated based on live cells (Jordan et al., 2003).

As for `COc1cccc(C(=O)CC(=O)C(=O)Nc2cc(Cl)ccc2C)c1` [KL-1, N-(5-chloro-2-methylphenyl)-4-oxo-4-(3-methoxyphenyl)-2-oxobutanamide], the “promoter-proximal pausing (pausing index, ECDF)” value with Pol II is reported as “could increase promoter-proximal pausing”. The “Pol II occupancy at promoter-proximal regions” value in the data set on Pol II (20 μM, 6 hr, HSPA8 and SRSF4 loci) is listed as “increased Pol II occupancy at the promoter-proximal regions”. Further, the “weight loss in mice” value in data set [1] (intraperitoneal) was “does not result in significant weight loss”. Further, the “sign of sickness in mice” value in data set [1] was “no obvious sign of sickness was observed”. In data set [2], the “GFP expression after PMA induction” value is recorded as “strong inhibition of GFP expression”.
